Results reported in patent publication US20240246916A1, “7-NITRO-8-HYDROXYQUINOLINE DERIVATIVES, PREPARATION METHOD THEREFORE AND MEDICAL USE THEREOF” (Jiangsu Yahong Meditech Co., Ltd., priority 2021, published 2024).
Converted amounts (≈) assume the structure as drawn.

Columns and labels:
Type in all cases: cell-based
[1] = system: Staphylococcus aureus (methicillin-resistant and sensitive clinical isolates; ATCC29213); assay: MIC by micro broth dilution (CLSI), Staphylococcus aureus; conditions: for MIC50 / MIC90: Clinical strain; for MIC50: read-out: MIC50; for MIC90: read-out: MIC90; for MIC: Standard strain ATCC29213, read-out: MIC
How it was run: (§1)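 Compounds were dissolved in DMSO and tested at 128 to 0.06 mg/L in cation-adjusted Mueller-Hinton broth. Overnight cultures were set to 0.5 McFarland, diluted 100-fold to a final 10^5 CFU/mL, and incubated at 35±2° C for 20 hours in air. Results were interpreted by CLSI 2019 M100 criteria.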

[2] = system: Acinetobacter baumannii (carbapenem-resistant clinical isolates; ATCC19606); assay: MIC by micro broth dilution (CLSI), Acinetobacter baumannii; conditions: Acinetobacter baumannii; for MIC50 / MIC90: ATCC19606, Clinical strain; for MIC50: read-out: MIC50; for MIC90: read-out: MIC90; for MIC: Standard strain ATCC19606, read-out: MIC
How it was run: as §1

[3] = system: Escherichia coli (carbapenem-resistant clinical isolate; ATCC25922); assay: MIC by micro broth dilution (CLSI), Escherichia coli; conditions: Escherichia coli; for MIC50 / MIC90: ATCC25922, Clinical strain; for MIC50: read-out: MIC50; for MIC90: read-out: MIC90; for MIC: Standard strain ATCC25922, read-out: MIC
How it was run: as §1

[4] = system: Bladder cancer cell line UM-UC-3; assay: Inhibitory activity on cancer cells, CellTiter-Glo viability, UM-UC-3; conditions: Homo sapiens, UMUC3, 72 hours treatment
How it was run: (§2)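 HUVEC seeded at 2000, UM-UC-3 and RM-1 at 3000, LNCaP at 5000 cells/well, each in its own medium, 24 h before dosing. Compounds: 8-point 2.5-fold dilutions from 100 μmol, 72 h at 37 °C, 5% CO2. CellTiter-Glo luminescence; IC50 from growth-inhibition curves.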

[5] = system: Endothelial cell line HUVEC; assay: Inhibitory activity on cells, CellTiter-Glo viability, HUVEC; conditions: Homo sapiens, 72 hours treatment
How it was run: as §2

[6] = system: Mouse prostate cancer cell line RM1; assay: Inhibitory activity on cancer cells, CellTiter-Glo viability, RM1; conditions: 72 hours treatment
How it was run: as §2

[7] = system: Prostate cancer cell line LNcaP; assay: Inhibitory activity on cancer cells, CellTiter-Glo viability, LNcaP; conditions: Homo sapiens, 72 hours treatment
How it was run: as §2

SMILES | MIC50 [1] [µg/mL] | MIC90 [1] [µg/mL] | MIC [1] [µg/mL] | MIC50 [2] [µg/mL] | MIC90 [2] [µg/mL] | MIC [2] [µg/mL] | MIC50 [3] [µg/mL] | MIC90 [3] [µg/mL] | MIC [3] [µg/mL] | IC50 [4] [µM] | IC50 [5] [nM] | IC50 [6] [µM] | IC50 [7] [nM]
CN1CCN(c2ccnc3c(O)c([N+](=O)[O-])cc(Cl)c23)CC1 [Example 40] | 32 (≈ 99.1 µM) | 32 (≈ 99.1 µM) | 32 (≈ 99.1 µM) | 128 (≈ 397 µM) | > 128 | > 128 | 128 (≈ 397 µM) | > 128 | 64 (≈ 198 µM) | 24.6 | 19100 | 11.5 | 12600
CC1(C)CCN(c2ccnc3c(O)c([N+](=O)[O-])cc(Cl)c23)CC1 [Example 41, 5-Chloro-4-(4,4-dimethylpiperidin-1-yl)-7-nitroquinolin-8-ol] | 32 (≈ 95.3 µM) | 32 (≈ 95.3 µM) | 32 (≈ 95.3 µM) | > 128 | > 128 | > 128 | > 128 | > 128 | > 128 | 1.03 | 2020 | 2.02 | 480
O=[N+]([O-])c1cc(Cl)c2c(N3CCCC3)ccnc2c1O [Example 42, 5-Chloro-7-nitro-4-(pyrrolidin-1-yl)quinolin-8-ol] | 32 (≈ 109 µM) | 32 (≈ 109 µM) | 32 (≈ 109 µM) | > 128 | > 128 | 128 (≈ 436 µM) | > 128 | > 128 | 128 (≈ 436 µM) | 42 | 33000 | 25.4 | 17400
O=[N+]([O-])c1cc(Cl)c2c(OCCF)ccnc2c1O [Example 43, 5-Chloro-4-(2-fluoroethoxy)-7-nitroquinolin-8-ol] | 8 (≈ 27.9 µM) | 8 (≈ 27.9 µM) | 8 (≈ 27.9 µM) | 128 (≈ 447 µM) | 128 (≈ 447 µM) | 128 (≈ 447 µM) | 128 (≈ 447 µM) | 128 (≈ 447 µM) | 128 (≈ 447 µM) | 12.3 | 7540 | 10.6 | 6260
CNC(=O)N1CCN(c2ccnc3c(O)c([N+](=O)[O-])cc(Cl)c23)CC1 [Example 44, 4-(5-Chloro-8-hydroxy-7-nitroquinolin-4-yl)-N-methylpiperazine-1-carboxamide] | 32 (≈ 87.5 µM) | 32 (≈ 87.5 µM) | 32 (≈ 87.5 µM) | > 128 | > 128 | > 128 | > 128 | > 128 | > 128 | > 50 | > 50000 | > 50 | > 50000
CC(C)(C)C(=O)N1CCN(c2ccnc3c(O)c([N+](=O)[O-])cc(Cl)c23)CC1 [Example 45, 4-(5-Chloro-8-hydroxy-7-nitroquinolin-4-yl)-1-(2,2,2-trimethylacetyl)piperazine] | > 128 | > 128 | > 128 | > 128 | > 128 | > 128 | > 128 | > 128 | > 128 | 23.6 | 10100 | 12.1 | 5430
CCOC(=O)C1CCN(c2ccnc3c(O)c([N+](=O)[O-])cc(Cl)c23)CC1 [Example 46, Ethyl 1-(5-chloro-8-hydroxy-7-nitroquinolin-4-yl)piperidine-4-carboxylate] | 32 (≈ 84.3 µM) | 64 (≈ 169 µM) | 32 (≈ 84.3 µM) | > 128 | > 128 | > 128 | > 128 | > 128 | > 128 | 0.96 | 560 | 1.86 | 880
O=[N+]([O-])c1cc(Cl)c2c(Oc3ccccc3)ccnc2c1O [Example 47, 5-Chloro-7-nitro-4-phenoxyquinolin-8-ol] | 16 (≈ 50.5 µM) | 32 (≈ 101 µM) | 32 (≈ 101 µM) | > 128 | > 128 | > 128 | > 128 | > 128 | > 128 | 2.38 | 1590 | 6.07 | 970
CS(=O)(=O)N1CCN(c2ccnc3c(O)c([N+](=O)[O-])cc(Cl)c23)CC1 [Example 48, 5-Chloro-4-(4-(methylsulfonyl)piperazin-1-yl)-7-nitroquinolin-8-ol] | 64 (≈ 165 µM) | 64 (≈ 165 µM) | 64 (≈ 165 µM) | > 128 | > 128 | > 128 | > 128 | > 128 | > 128 | 10.6 | 6580 | 14.4 | 10600
CC(C)C(=O)N1CCN(c2ccnc3c(O)c([N+](=O)[O-])cc(Cl)c23)CC1 [Example 50, 4-(5-Chloro-8-hydroxy-7-nitroquinolin-4-yl)-1-(2,2-dimethylacetyl)piperazine] | > 128 | > 128 | > 128 | > 128 | > 128 | > 128 | > 128 | > 128 | > 128 | 3.4 | 2940 | 4.29 | 2860
Cl.O=[N+]([O-])c1cc(Cl)c2c(-c3ccccc3)ccnc2c1O [Example 51, 5-chloro-7-nitro-4-phenylquinolin-8-ol hydrochloride] | 1 | 2 | 1 | > 128 | > 128 | > 128 | > 128 | > 128 | > 128 | 2.17 | 1710 | 4.25 | 1510
CCOC(=O)N1CCN(c2ccnc3c(O)c([N+](=O)[O-])cc(Cl)c23)CC1 [Example 52, Ethyl 4-(5-chloro-8-hydroxy-7-nitroquinolin-4-yl)piperazine-1-carboxylate] | 64 (≈ 168 µM) | 128 (≈ 336 µM) | 128 (≈ 336 µM) | > 128 | > 128 | > 128 | > 128 | > 128 | > 128 | 4.71 | 530 | 1.42 | 580
O=[N+]([O-])c1cc(Cl)c2c(OCC3CC3)ccnc2c1O [Example 53, 5-Chloro-4-(cyclopropylmethoxy)-7-nitroquinolin-8-ol] | 8 (≈ 27.1 µM) | 16 (≈ 54.3 µM) | 16 (≈ 54.3 µM) | 128 (≈ 434 µM) | 128 (≈ 434 µM) | 128 (≈ 434 µM) | 128 (≈ 434 µM) | 128 (≈ 434 µM) | 128 (≈ 434 µM) | 0.86 | 590 | 3.06 | 1080
